Data taken from patent publication US8729132B2, “Agomelatine hydrobromide hydrate and preparation thereof” (Les Laboratoires Servier, priority 2010, dated 2014).
Where a name gives a salt, the structure may show the parent alone. One block for each molecule: values may come before it.

Legend:
Assay type in all cases: physicochemical
[1] = Water solubility by HPLC, external standard method
Method: Using external standard method, the product of example 1 was tested with HPLC, compared with agomelatine crystalline form II.

[2] = Stability test, incubator at 40° C. for 30 days, HPLC
Method: Chromatographic conditions: C18 column; mobile phase: 10 mmol/L phosphate buffer (adjusted to pH 7.0 with NaOH): acetonitrile=2:7 (v/v); column temperature: 40° C.; detection wavelength: 220 nm; internal standard method was used on the products of examples 1 and 2.
Solutions of the products at 1 mg/mL were prepared with the mobile phase. 10 μL of each solution was injected into the liquid chromatograph system and chromatograms were recorded. The results of the purity are shown in examples 1 and 2.
The product of example 1 was placed in an incubator at 40° C. for 30 days to determine its stability with HPLC.

[3] = Stability test per Chinese Pharmacopoeia (affecting factors, accelerated, long-term); conditions: for Water: initial 5.25%; for Br: initial 23.21%; for Purity of agomelatine hydrobromide hydrate: initial value 99.89%
Method: The method for stability test as described in Chinese Pharmacopoeia was used in this test. • 1) Affecting factors test (in open container for 10 days): high temperature (60° C.), photostability under strong light ([…]), high humidity (92.5% RH at 25° C.) • 2) Accelerated test (in closed container for 6 months): at 40° C., humidity: 75% RH • 3) Long-term test (in closed container for 9 months): at 25° C., humidity: 60% RH

[4] = Accelerated test: closed container, 6 months, 40° C., 75% RH
[5] = Affecting factors: high humidity (92.5% RH at 25° C.), open container, 10 days
[6] = Affecting factors: high temperature (60° C.), open container, 10 days
[7] = Affecting factors: strong light (45001x), open container, 10 days
[8] = Long-term test: closed container, 9 months, 25° C., 60% RH

Agomelatine content ([1]; In 0.1N HCl): 0.30 mg/mL | Agomelatine content ([1]; In pH 7.0 buffer): 0.25 mg/mL | Agomelatine content ([1]; In water): 0.26 mg/mL
SMILES: COc1ccc2cccc(CCNC(C)=O)c2c1 [AG crystalline form II, N-[2-(7-methoxy-1-naphthyl)ethyl]-acetamide, reference compound]

Agomelatine content ([1]; In 0.1N HCl, hydrobromide hydrate): 0.37 mg/mL | Agomelatine content ([1]; In pH 7.0 buffer, hydrobromide hydrate): 0.31 mg/mL | Agomelatine content ([1]; In water, hydrobromide hydrate): 0.33 mg/mL | stability with HPLC (purity) ([2]; Day 0): 99.7% | stability with HPLC (purity) ([2]; Day 5): 99.7% | stability with HPLC (purity) ([2]; Day 10): 99.6% | stability with HPLC (purity) ([2]; Day 30): 99.6% | Water [3, 4]: 5.41% | Br [3, 4]: 23.07% | Purity of agomelatine hydrobromide hydrate [3, 4]: 99.83% | Water [3, 5]: 5.45% | Br [3, 5]: 23.11% | Purity of agomelatine hydrobromide hydrate [3, 5]: 99.83% | Water [3, 6]: 5.18% | Br [3, 6]: 21.95% | Purity of agomelatine hydrobromide hydrate [3, 6]: 99.87% | Water [3, 7]: 5.22% | Br [3, 7]: 22.61% | Purity of agomelatine hydrobromide hydrate [3, 7]: 99.71% | Water [3, 8]: 5.18% | Br [3, 8]: 22.52% | Purity of agomelatine hydrobromide hydrate [3, 8]: 99.84% | stability (overall conclusion) ([3]; affecting factors, accelerated and long-term tests): stable
SMILES: COc1ccc2cccc(CCNC(C)=O)c2c1 [AG•HBr•H2O, agomelatine hydrobromide hydrate]
solubility compared with agomelatine per se ([1]; in water, 0.1N HCl or pH 7.0 buffer): better solubility than agomelatine per se
